Series [1] deals with T1, Muscarinic acetylcholine receptor M1 (Homo sapiens, UniProt P11229).
T1 sequence (P11229 whole entry): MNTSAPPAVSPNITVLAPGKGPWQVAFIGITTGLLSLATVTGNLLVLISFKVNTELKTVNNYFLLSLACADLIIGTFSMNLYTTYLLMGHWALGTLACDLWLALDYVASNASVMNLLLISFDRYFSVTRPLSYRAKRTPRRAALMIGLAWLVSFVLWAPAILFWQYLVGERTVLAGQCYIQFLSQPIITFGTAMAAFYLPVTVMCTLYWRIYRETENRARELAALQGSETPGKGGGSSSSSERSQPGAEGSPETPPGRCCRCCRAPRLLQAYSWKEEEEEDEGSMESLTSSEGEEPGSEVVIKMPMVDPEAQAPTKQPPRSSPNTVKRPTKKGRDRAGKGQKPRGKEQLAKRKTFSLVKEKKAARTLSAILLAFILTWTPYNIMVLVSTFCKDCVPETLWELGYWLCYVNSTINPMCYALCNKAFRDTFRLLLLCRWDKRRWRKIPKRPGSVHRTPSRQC
As to the kind of experiment: Antagonist activity at human muscarinic M1 receptor expressed in CHO cells assessed as inhibition of acetylcholine-induced calcium mobilization by fluorescence assay. The format is functional, cell-based.

Series [2] deals with T2, Muscarinic acetylcholine receptor M1 (Homo sapiens) (UniProt P11229).
T2 sequence (whole entry): T1 sequence (P11229 whole entry)
The series is described as follows: Antagonist activity at human muscarinic M1 receptor expressed in CHO cells assessed as residual activity at 30 uM by fluorescence assay. The format is functional, cell-based.

Series [3] concerns the target T2, Muscarinic acetylcholine receptor M1 (Homo sapiens). The series is described as follows: Inhibition of human muscarinic M1 receptor expressed in CHO cells assessed as inhibition of acetylcholine-induced calcium mobilization at 30 uM by fluorescence assay. The format is functional, cell-based.
Series [4] has the same target. The series is described as follows: Ratio of ML012 IC50 to compound IC50 for human muscarinic M1 receptor.
Series [5] has as its target Muscarinic acetylcholine receptor M3 (Homo sapiens, UniProt P20309). As to the kind of experiment: Antagonist activity at human muscarinic M3 receptor expressed in CHO cells assessed as inhibition of acetylcholine-induced calcium mobilization by fluorescence assay. The format is functional, cell-based.
Series [6] deals with T3, Muscarinic acetylcholine receptor M5 (Homo sapiens, UniProt P08912).
T3 sequence (P08912 whole entry): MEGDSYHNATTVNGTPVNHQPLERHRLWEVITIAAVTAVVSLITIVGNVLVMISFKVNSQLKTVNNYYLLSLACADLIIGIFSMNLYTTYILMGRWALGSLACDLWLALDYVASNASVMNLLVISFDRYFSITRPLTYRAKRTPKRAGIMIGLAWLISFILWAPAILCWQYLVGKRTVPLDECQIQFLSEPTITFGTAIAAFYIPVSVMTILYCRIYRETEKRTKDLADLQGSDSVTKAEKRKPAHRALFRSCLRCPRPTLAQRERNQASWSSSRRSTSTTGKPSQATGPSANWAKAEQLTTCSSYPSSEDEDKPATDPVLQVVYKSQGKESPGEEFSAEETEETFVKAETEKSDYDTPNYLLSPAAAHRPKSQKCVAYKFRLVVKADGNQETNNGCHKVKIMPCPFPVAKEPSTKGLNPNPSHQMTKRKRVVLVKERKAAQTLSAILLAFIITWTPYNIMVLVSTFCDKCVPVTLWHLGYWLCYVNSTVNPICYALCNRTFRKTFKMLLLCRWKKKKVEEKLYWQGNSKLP
As to the kind of experiment: Antagonist activity at human muscarinic M5 receptor expressed in CHO cells assessed as inhibition of acetylcholine-induced calcium mobilization by fluorescence assay. The format is functional, cell-based.

In a further series the test system is Rattus norvegicus. As to the kind of experiment: Half life in iv dosed Sprague-Dawley rat. The format is ADME, organism-based. The following applies: in vivo.
Series [7] addresses T4, Muscarinic acetylcholine receptor M2 (Homo sapiens, UniProt P08172).
T4 sequence (P08172 whole entry): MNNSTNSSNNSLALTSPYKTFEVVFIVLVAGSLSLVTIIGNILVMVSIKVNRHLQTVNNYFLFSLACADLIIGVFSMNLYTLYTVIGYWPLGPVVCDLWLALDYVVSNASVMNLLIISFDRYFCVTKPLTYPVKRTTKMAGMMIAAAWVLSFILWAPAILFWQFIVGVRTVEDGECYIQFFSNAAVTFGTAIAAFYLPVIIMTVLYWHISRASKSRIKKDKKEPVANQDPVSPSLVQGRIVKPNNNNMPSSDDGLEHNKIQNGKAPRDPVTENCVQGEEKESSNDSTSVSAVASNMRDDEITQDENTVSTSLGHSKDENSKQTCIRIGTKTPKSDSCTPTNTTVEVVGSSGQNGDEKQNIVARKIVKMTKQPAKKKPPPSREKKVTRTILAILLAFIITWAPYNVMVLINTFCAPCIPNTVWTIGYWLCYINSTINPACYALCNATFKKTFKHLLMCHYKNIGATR
As to the kind of experiment: Antagonist activity at human muscarinic M2 receptor expressed in CHO cells assessed as inhibition of acetylcholine-induced calcium mobilization by fluorescence assay. The format is functional, cell-based.

Series [8] is described as follows: Oral bioavailability in Sprague-Dawley rat at 10 mg/kg. The following applies: in vivo. The format is ADME, organism-based.
Series [9] is described as follows: Clearance in iv dosed Sprague-Dawley rat. The format is ADME, organism-based. Conditions: in vivo.
Series [10] addresses T5, Muscarinic acetylcholine receptor M4 (Homo sapiens, UniProt P08173).
T5 sequence (P08173 whole entry): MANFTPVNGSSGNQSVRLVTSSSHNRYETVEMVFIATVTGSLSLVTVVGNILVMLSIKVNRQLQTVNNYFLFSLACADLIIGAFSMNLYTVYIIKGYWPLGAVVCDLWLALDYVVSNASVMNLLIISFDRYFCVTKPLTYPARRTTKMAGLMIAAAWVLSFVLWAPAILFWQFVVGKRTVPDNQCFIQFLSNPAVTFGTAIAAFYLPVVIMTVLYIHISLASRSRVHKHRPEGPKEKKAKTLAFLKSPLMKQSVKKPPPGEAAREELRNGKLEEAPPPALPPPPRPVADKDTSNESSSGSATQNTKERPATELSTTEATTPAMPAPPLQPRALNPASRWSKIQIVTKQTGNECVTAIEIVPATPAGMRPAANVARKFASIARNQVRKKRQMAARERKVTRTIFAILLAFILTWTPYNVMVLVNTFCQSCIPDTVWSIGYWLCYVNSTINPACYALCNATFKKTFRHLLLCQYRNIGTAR
As to the kind of experiment: Antagonist activity at human muscarinic M4 receptor expressed in CHO cells assessed as inhibition of acetylcholine-induced calcium mobilization by fluorescence assay. The format is functional, cell-based.

The target of series [11] is T6, Muscarinic acetylcholine receptor M1 (Rattus norvegicus, UniProt P08482).
T6 sequence (P08482 whole entry): T1 sequence (P11229 whole entry) with A5V, T254S, P309S, R320K, A337G, I413V
The series is described as follows: Antagonist activity at rat muscarinic M1 receptor expressed in CHO cells assessed as inhibition of acetylcholine-induced calcium mobilization by fluorescence assay. The format is functional, cell-based.

Substitutions are numbered along the chain they refer to. Active and inactive are the calls of the source. The calls are words filed in the database; no cut-off is given here.

Chain of Muscarinic acetylcholine receptor M3 (P20309 whole entry): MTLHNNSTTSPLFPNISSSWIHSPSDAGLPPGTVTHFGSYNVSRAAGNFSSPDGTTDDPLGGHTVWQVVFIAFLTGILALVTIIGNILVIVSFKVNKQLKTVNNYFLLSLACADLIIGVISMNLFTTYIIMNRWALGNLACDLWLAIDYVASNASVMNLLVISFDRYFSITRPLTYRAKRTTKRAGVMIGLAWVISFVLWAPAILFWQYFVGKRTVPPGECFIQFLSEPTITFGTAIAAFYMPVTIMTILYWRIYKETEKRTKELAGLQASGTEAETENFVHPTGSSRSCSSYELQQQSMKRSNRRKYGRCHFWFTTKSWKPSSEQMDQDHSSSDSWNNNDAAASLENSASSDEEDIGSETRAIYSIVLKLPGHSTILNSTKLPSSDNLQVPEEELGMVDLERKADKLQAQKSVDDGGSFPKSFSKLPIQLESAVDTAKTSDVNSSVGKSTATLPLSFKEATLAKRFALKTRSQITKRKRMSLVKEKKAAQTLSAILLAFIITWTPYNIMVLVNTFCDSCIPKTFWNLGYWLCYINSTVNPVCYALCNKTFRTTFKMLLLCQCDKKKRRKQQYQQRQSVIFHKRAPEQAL

Consider `O=C(CCNS(=O)(=O)c1c(Cl)ccc2nonc12)N1CCN(c2ccc(Br)cn2)CC1`, for which the IC50 in series [1] was > 10 µM.

For the compound `Cc1cccc(N2CCN(C(=O)CCNS(=O)(=O)c3cccc4nsnc34)CC2)n1`, the IC50 in series [1] was > 10 µM.

As to `O=C(CCNS(=O)(=O)c1cccc2nsnc12)N1CCN(c2cc(Cl)ccn2)CC1`, the IC50 in series [1] came out at 4.5 µM.

Turning to `CN(CCC(=O)N1CCN(c2ccncc2)CC1)S(=O)(=O)c1cccc2nsnc12`, the IC50 in [1] was > 10 µM.

On to `O=C(CCNS(=O)(=O)c1cccc(-n2cnnn2)c1)N1CCN(c2ccncc2)CC1`, for which, in series [1], the IC50 is > 10 µM.

For `O=C(CCNS(=O)(=O)c1cccc2nsnc12)N1CCN(c2ncccn2)CC1`, the IC50 in series [1] was > 10 µM.

For `O=C(CCNS(=O)(=O)c1cccnc1)N1CCN(c2ccncc2)CC1`, the IC50 in [1] was > 10 µM.

On to `O=C(CCNS(=O)(=O)c1cccc2nsnc12)N1CCN(c2ccnc(F)c2)CC1`, for which the IC50 in series [1] was > 10 µM.

For the compound `Cc1ccnc(N2CCN(C(=O)CCNS(=O)(=O)c3cccc4nsnc34)CC2)c1`, the IC50 in series [1] was > 10 µM.

As to `CN(C)c1cccc2c(S(=O)(=O)NCCC(=O)N3CCN(c4ccncc4)CC3)cccc12`, the IC50 in series [1] was > 10 µM.

Take `Cc1cnccc1N1CCN(C(=O)CCNS(=O)(=O)c2cccc3nsnc23)CC1`: the IC50 in series [1] is 2 µM.

On to `CC(=O)Nc1nc(C)c(S(=O)(=O)NCCC(=O)N2CCN(c3ccc(Br)cn3)CC2)s1`, for which the IC50 in series [1] is > 10 µM.

As for `O=S(=O)(NCCCN1CCN(c2ccncc2)CC1)c1cccc2nsnc12`, in series [2], the Activity was 17%. Moreover, the IC50 in series [1] was > 10 µM.

On to `Cc1ccc2nonc2c1S(=O)(=O)NCCC(=O)N1CCN(c2ccc(Br)cn2)CC1`, for which the IC50 in series [1] was > 10 µM.

Regarding `O=C(CCNS(=O)(=O)c1cccc2scnc12)N1CCN(c2ccncc2)CC1`, the 50% inhibitory concentration (IC50) in [1] was > 10 µM.

Take `O=C(CCNS(=O)(=O)c1cccc2cccnc12)N1CCN(c2ccc(Br)cn2)CC1`: in series [1], the IC50 was > 10 µM.

On to `C[C@@H](CC(=O)N1CCN(c2ccncc2)CC1)NS(=O)(=O)c1cccc2nonc12`, for which the inhibition in [3] is 30%.

On to `O=C(CCNS(=O)(=O)c1cccc2nonc12)N1CCN(c2ccc(Br)cn2)CC1`, for which, in series [1], the IC50 is 1.1 µM.

Turning to `O=C(CCNS(=O)(=O)c1ccc2nsnc2c1)N1CCN(c2ccncc2)CC1`, the IC50 in [1] is > 10 µM.

Take `O=C(CCNS(=O)(=O)c1ccc(F)c2nonc12)N1CCN(c2ccc(Br)cn2)CC1`: the IC50 in series [1] amounted to 4.8 µM.

Regarding `O=C(CCNS(=O)(=O)c1cccc2nsnc12)N1CCN(c2nccs2)CC1`, the IC50 in series [1] was > 10 µM.

On to `O=C(CCNS(=O)(=O)c1cccc2nsnc12)N1CCN(c2cccc(F)n2)CC1`, for which, in series [1], the IC50 was > 10 µM.

Turning to `O=C(CCNS(=O)(=O)c1cccc2nsnc12)N1CCN(c2cccc(Cl)n2)CC1`, the IC50 in [1] is > 10 µM.

As to `COc1cccc(S(=O)(=O)NCCC(=O)N2CCN(c3ccc(Br)cn3)CC2)c1`, in series [1], the IC50 was > 10 µM.

Take `Cc1ccc2nsnc2c1S(=O)(=O)NCCC(=O)N1CCN(c2ccncc2)CC1`: the IC50 in series [1] was > 10 µM.

With `O=C(CCNS(=O)(=O)c1cccc2nsnc12)N1CCN(c2ccc(Br)cn2)CC1`, in [4], the Ratio IC50 was 2. Moreover, the IC50 in series [1] was found to be 0.32 µM.

As for `C[C@H](CC(=O)N1CCN(c2ccncc2)CC1)NS(=O)(=O)c1cccc2nonc12`, in series [3], the inhibition entry was “inactive”.

`O=C(CCNS(=O)(=O)c1cccc2ncccc12)N1CCN(c2ccc(Br)cn2)CC1`: the IC50 in series [1] was 2.1 µM.

`O=C(CCNS(=O)(=O)c1cccc2ncccc12)N1CCN(c2ccncc2)CC1`: the IC50 in [5] was > 30 µM; in series [6], > 30 µM; in series [7] it was > 30 µM; in series [10], > 30 µM; in series [11] it was 0.18 µM; in series [1], 0.4 µM. In the series with Rattus norvegicus, the t1/2 is on record as 40 min. Further, in series [8], the bioavailability is < 10%. Further, the clearance in series [9] turned out to be 77 mL/min/kg.

Consider `O=C(CCNS(=O)(=O)c1cccc2nsnc12)N1CCN(c2nc3ccccc3o2)CC1`, for which the IC50 in series [1] is > 10 µM.

With `O=C(CCNS(=O)(=O)c1cccc2ccccc12)N1CCN(c2ccc(Br)cn2)CC1`, the IC50 in series [1] was > 10 µM.

With `O=C(C(F)CNS(=O)(=O)c1cccc2nonc12)N1CCN(c2ccncc2)CC1` (racemic), the Activity in [2] is 25%.

In the case of `O=C(CCNS(=O)(=O)c1cccc2nsnc12)N1CCN(c2ccncc2)CC1`, the IC50 in series [11] is 0.24 µM; in [1], 0.69 µM.

On to `O=C(CCNS(=O)(=O)c1cccc2nsnc12)N1CCN(c2ccnc(Cl)c2)CC1`, for which, in series [1], the IC50 is > 10 µM.

Take `Cc1ccc2nonc2c1S(=O)(=O)NCCC(=O)N1CCN(c2ccncc2)CC1`: in series [1], the IC50 is > 10 µM.

As for `O=C(CCNS(=O)(=O)c1cccc2nsnc12)N1CCN(c2ccccn2)CC1`, in series [1], the IC50 was > 10 µM.

`O=C(CCNS(=O)(=O)c1cccc2nonc12)N1CCN(c2ccncc2)CC1`: the IC50 in series [1] came to 2.6 µM.

Turning to `O=C(CCNS(=O)(=O)c1cccc2nsnc12)N1CCN(c2ncc(Cl)cn2)CC1`, the IC50 in series [1] is > 10 µM.

On to `O=C(CCNS(=O)(=O)c1cccc2nsnc12)N1CCN(c2nc3ccccc3s2)CC1`, for which, in series [1], the IC50 is > 10 µM.

For the origin of these results see ChEMBL document CHEMBL1938324 (Bioorg Med Chem Lett, 2012).
